Measured values as given in the NIST ThermoML archive (doi:10.1016/j.jct.2010.12.028).
Numbers after ± are expanded uncertainties.

Assays:
[1] = xn = mol fraction of the nth substance listed; conditions: 101 kPa, Liquid; for speed of sound: Sing-around technique in a fixed-path interferometer; for mass density: Vibrating tube method
[2] = excess molar enthalpy (molar enthalpy of mixing); xn = mol fraction of the nth substance listed; conditions: 308.15 K, 101 kPa, Liquid, two-drop calorimeter

Cc1ccccn1 [2-methylpyridine] + Cc1ccccc1N
[1]
Conditions	mass density, 298.15 K [kg/m3]	mass density, 303.15 K [kg/m3]	mass density, 308.15 K [kg/m3]	speed of sound, 298.15 K [m/s]	speed of sound, 303.15 K [m/s]	speed of sound, 308.15 K [m/s]
x2 = 0.0588	944.871 ± 0.74	940.204 ± 0.73	935.521 ± 0.73	1395.6 ± 2.9	1376.2 ± 2.9	1355.7 ± 2.9
x2 = 0.1226	950.051 ± 0.7	945.414 ± 0.69	940.771 ± 0.69	1412 ± 2.8	1392.5 ± 2.8	1372.3 ± 2.8
x2 = 0.1427	951.609 ± 0.68	946.996 ± 0.68	942.357 ± 0.68	1417.3 ± 2.8	1397.5 ± 2.8	1377.4 ± 2.8
x2 = 0.1759	954.117 ± 0.66	949.518 ± 0.66	944.908 ± 0.66	1425.8 ± 2.8	1405.8 ± 2.8	1385.8 ± 2.8
x2 = 0.2258	957.721 ± 0.63	953.161 ± 0.63	948.573 ± 0.62	1438.3 ± 2.8	1418.1 ± 2.8	1398.3 ± 2.8
x2 = 0.2557	959.793 ± 0.61	955.24 ± 0.61	950.677 ± 0.61	1445.7 ± 2.8	1425.4 ± 2.8	1405.6 ± 2.7
x2 = 0.3113	963.447 ± 0.58	958.931 ± 0.58	954.409 ± 0.57	1459.5 ± 2.7	1438.7 ± 2.7	1418.7 ± 2.7
x2 = 0.3629	966.623 ± 0.55	962.158 ± 0.55	957.666 ± 0.54	1471.8 ± 2.7	1450.8 ± 2.7	1430.8 ± 2.7
x2 = 0.4213	969.995 ± 0.52	965.568 ± 0.51	961.112 ± 0.51	1485.4 ± 2.6	1464 ± 2.6	1443.9 ± 2.6
x2 = 0.4743	972.843 ± 0.49	968.45 ± 0.48	964.025 ± 0.48	1497.5 ± 2.6	1475.7 ± 2.6	1455.4 ± 2.6
x2 = 0.5146	974.899 ± 0.46	970.527 ± 0.46	966.122 ± 0.46	1506.3 ± 2.6	1484.4 ± 2.6	1464 ± 2.6
x2 = 0.5732	977.707 ± 0.43	973.382 ± 0.43	968.998 ± 0.43	1519.1 ± 2.6	1496.8 ± 2.6	1476.2 ± 2.6
x2 = 0.6182	979.733 ± 0.41	975.431 ± 0.41	971.079 ± 0.41	1528.4 ± 2.5	1505.9 ± 2.5	1485.5 ± 2.5
x2 = 0.6862	982.621 ± 0.37	978.364 ± 0.37	974.033 ± 0.37	1542.2 ± 2.5	1519.4 ± 2.5	1498.8 ± 2.5
x2 = 0.7571	985.441 ± 0.34	981.219 ± 0.34	976.909 ± 0.34	1556.3 ± 2.5	1532.9 ± 2.5	1508 ± 2.5
x2 = 0.8344	988.355 ± 0.3	984.158 ± 0.3	979.889 ± 0.3	1571.1 ± 2.4	1547.4 ± 2.4	1522.5 ± 2.4
x2 = 0.8737	989.787 ± 0.28	985.611 ± 0.28	981.361 ± 0.28	1578.5 ± 2.4	1554.6 ± 2.4	1538.1 ± 2.4
x2 = 0.9527	992.636 ± 0.25	988.492 ± 0.25	984.295 ± 0.25	1593.5 ± 2.4	1569.1 ± 2.4	1555.1 ± 2.4

[2]
Conditions	excess molar enthalpy [kcal/mol]
x2 = 0.0496	-0.0681 ± 0.00311
x2 = 0.0772	-0.103 ± 0.0043
x2 = 0.1356	-0.173 ± 0.00717
x2 = 0.1802	-0.22 ± 0.00908
x2 = 0.2234	-0.26 ± 0.0105
x2 = 0.2736	-0.298 ± 0.0122
x2 = 0.3294	-0.327 ± 0.0134
x2 = 0.3813	-0.347 ± 0.0141
x2 = 0.4326	-0.361 ± 0.0146
x2 = 0.4882	-0.358 ± 0.0146
x2 = 0.5321	-0.351 ± 0.0143
x2 = 0.5735	-0.342 ± 0.0139
x2 = 0.6423	-0.307 ± 0.0124
x2 = 0.7152	-0.259 ± 0.0105
x2 = 0.7821	-0.207 ± 0.00837
x2 = 0.8293	-0.163 ± 0.00669
x2 = 0.8916	-0.104 ± 0.0043
x2 = 0.9676	-0.0298 ± 0.0016
